pIC50: −log10 of the molar value.
What was measured:
PRMT5 [1] = molecular target: T1, PRMT5 (Homo sapiens, UniProt O14744); experiment: PRMT5 biochemical IC50 assay with SAM as cofactor; conditions: PRMT5, SAM as cofactor; read-out: SAM IC50
T1 construct: purchased Viva (custom protein)

PRMT5 [2] = molecular target: T1, PRMT5; experiment: PRMT5 biochemical IC50 assay with no cofactor; conditions: PRMT5, no cofactor
Text: Table 1 indicates IC50 values (μM) against PRMT5 for exemplary compounds in the presence of SAM as cofactor, with no cofactor, and with MTA as cofactor, respectively (columns 4-6). […] Ki values can be calculated from the IC50 values as described in the Examples section. As detailed in the Examples section, for the assay performed in the presence of SAM, IC50=Ki×1.5 (Ki=IC50/1.5).

PRMT5 [3] = molecular target: T1, PRMT5; experiment: PRMT5 biochemical IC50 assay with MTA as cofactor; conditions: PRMT5, MTA as cofactor; read-out: MTA IC50
[4] = test system: HAP1 MTAP-intact cell line; experiment: SDMA in-cell western assay, HAP1 MTAP-intact; format: cell-based; conditions: Homo sapiens, HAP1, SDMA in-cell western, HAP1 MTAP-intact; read-out: MTAP HAP1 intact IC50
Outline: (§1)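 MTAP-null vs endogenous-MTAP HAP1 isogenic cells; in-cell western SDMA readout; IC50 per line.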

[5] = test system: HAP1 MTAP-deleted cell line; experiment: SDMA in-cell western assay, HAP1 MTAP-deleted; format: cell-based; conditions: for pIC50: Homo sapiens, HAP1, SDMA in-cell western, HAP1 MTAP-deleted; for MTAP intact/deleted ratio: SDMA in-cell western
Outline: as §1

[6] = test system: HAP1 MTAP-deleted cell line; experiment: Viability assay, MTAP-deleted cell line; format: cell-based; conditions: Homo sapiens, read-out: HAP1 MTAP deleted viability
Text: Table 1 additionally indicates IC50 values in a viability assay for the MTAP-deleted cell line (column 10), indicating the effect of treatment with compound on cell survival.

[7] = read-out: HAP 1 MTAP deleted IC50
[8] = IC50 ratio HAP1 MTAP-intact / HAP1 MTAP-deleted
[9] = HAP1, viability assay, MTAP-deleted cell line
[10] = read-out: HAP1 MTAP deleted IC50
[11] = HAP1, viability assay, HAP1 MTAP-deleted
[12] = read-out: No Cofactor/ rel IC50
[13] = HAP1, viability, HAP1 MTAP-deleted cell line
[14] = HAP1, viability IC50, MTAP-deleted cell line
[15] = IC50 ratio HAP1 MTAP-intact vs HAP1 MTAP-deleted

T1 sequence (O14744 whole entry): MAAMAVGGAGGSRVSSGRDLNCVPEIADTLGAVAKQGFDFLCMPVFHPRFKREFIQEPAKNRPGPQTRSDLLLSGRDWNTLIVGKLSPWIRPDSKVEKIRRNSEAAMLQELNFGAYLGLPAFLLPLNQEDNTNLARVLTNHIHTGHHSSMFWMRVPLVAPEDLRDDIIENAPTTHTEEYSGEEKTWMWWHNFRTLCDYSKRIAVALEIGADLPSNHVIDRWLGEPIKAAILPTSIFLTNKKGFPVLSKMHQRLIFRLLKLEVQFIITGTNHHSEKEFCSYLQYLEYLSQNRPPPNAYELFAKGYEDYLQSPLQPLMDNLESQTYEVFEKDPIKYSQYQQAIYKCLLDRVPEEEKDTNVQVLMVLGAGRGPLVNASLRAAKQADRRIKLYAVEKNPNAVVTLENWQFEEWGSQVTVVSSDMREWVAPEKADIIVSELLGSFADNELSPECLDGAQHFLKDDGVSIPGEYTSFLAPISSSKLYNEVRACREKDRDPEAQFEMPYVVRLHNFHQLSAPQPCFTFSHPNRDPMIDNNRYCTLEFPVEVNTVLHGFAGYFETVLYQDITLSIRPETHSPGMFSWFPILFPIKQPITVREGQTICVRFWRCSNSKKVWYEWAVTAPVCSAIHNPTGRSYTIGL
T1 sequence (Q9BQA1 whole entry partner): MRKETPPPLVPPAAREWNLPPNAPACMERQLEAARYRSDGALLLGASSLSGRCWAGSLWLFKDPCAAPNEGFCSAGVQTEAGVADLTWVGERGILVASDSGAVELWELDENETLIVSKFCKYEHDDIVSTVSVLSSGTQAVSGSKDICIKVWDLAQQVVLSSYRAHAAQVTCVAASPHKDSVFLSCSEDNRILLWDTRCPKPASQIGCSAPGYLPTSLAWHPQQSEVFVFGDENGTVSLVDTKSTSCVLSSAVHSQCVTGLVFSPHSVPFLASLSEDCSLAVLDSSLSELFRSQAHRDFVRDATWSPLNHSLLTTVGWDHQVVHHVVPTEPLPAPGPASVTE

Compound | pIC50 (PRMT5 [1]) | pIC50 (PRMT5 [2]; read-out: No Cofactor/rel IC50) | pIC50 (PRMT5 [3]) | pIC50 [4] | pIC50 [5, 7] | pIC50 [5, 10] | pIC50 (PRMT5 [2]; [12]) | MTAP intact/deleted ratio [5, 8] | pIC50 [6, 9] | pIC50 [6, 11] | pIC50 [6, 13] | pIC50 [6, 14] | MTAP intact/deleted ratio [5, 15]
C[C@@H]1CC[C@@H](c2ccc(-c3nccs3)cc2)N(C(=O)C(=O)Nc2cncc(C(N)=O)c2)C1 (single isomer, unassigned) [Compound 783] | 6.30 to 7.30 | 6.30 to 7.30 | > 7.30 | < 6.00 | – | > 7.00 | – | A (an IC50 ratio greater than or equal to 10 fold) | – | 5.00 to 6.00 | – | – | –
CCc1cc(NC(=O)C(=O)N2C[C@@H](C)CC[C@@H]2c2ccc(N3CCN(CC)CC3)cc2)cnc1N (single isomer, unassigned) [Compound 1360] | < 6.30 | – | < 6.30 | < 6.00 | < 6.00 | – | < 6.30 | – | – | – | < 5.00 | – | –
CCc1cc(NC(=O)C(=O)N2C[C@H](C)CC[C@H]2c2ccc(N3CCN(C)CC3)cc2)cnc1N (single isomer, unassigned) [Compound 1116] | < 6.30 | < 6.30 | < 6.30 | < 6.00 | – | < 6.00 | – | – | < 5.00 | – | – | – | –
Cc1cc(NC(=O)C(=O)N2CCCC[C@H]2c2cccc(N(C)C)c2)cnc1N (single isomer, unassigned) [Compound 384] | 6.30 to 7.30 | > 7.30 | > 7.30 | < 6.00 | – | > 7.00 | – | A (an IC50 ratio greater than or equal to 10 fold) | > 6.00 | – | – | – | –
CCc1cc(NC(=O)C(=O)N2C[C@H](C)CC[C@H]2c2ccc(NS(C)(=O)=O)cc2)cnc1N (single isomer, unassigned) [Compound 866] | < 6.30 | < 6.30 | < 6.30 | < 6.00 | – | < 6.00 | – | C (an IC50 ratio of less than 3 fold) | – | < 5.00 | – | – | –
C[C@@H]1C[C@H](F)[C@@H](c2ccc(F)cc2)N(C(=O)C(=O)Nc2cncc(C(N)=O)c2)C1 (racemic) [Compound 879, 5-[[2-[(2R,3S,5R)-3-fluoro-2-(4-fluorophenyl)-5-methyl-1-piperidyl]-2-oxo-acetyl]amino]pyridine-3-carboxamide] | 6.30 to 7.30 | 6.30 to 7.30 | > 7.30 | < 6.00 | – | 6.00 to 7.00 | – | A (an IC50 ratio greater than or equal to 10 fold) | – | 5.00 to 6.00 | – | – | –
COc1ncc(NC(=O)C(=O)N2C[C@H](C)CC[C@H]2c2cc(Cl)cc(Cl)c2)cc1C(N)=O (single isomer, unassigned) [Compound 965] | < 6.30 | < 6.30 | < 6.30 | < 6.00 | < 6.00 | – | – | B (an IC50 ratio greater than or equal to 3 fold but lower than 10 fold) | < 5.00 | – | – | – | –
COc1cc([C@H]2CC[C@H](C)CN2C(=O)C(=O)Nc2cnc(N)c(C)c2)ccn1 (single isomer, unassigned) [Compound 538] | < 6.30 | < 6.30 | < 6.30 | < 6.00 | < 6.00 | – | – | B (an IC50 ratio greater than or equal to 3 fold but lower than 10 fold) | – | – | – | < 5.00 | –
C[C@H]1CC[C@H](c2cc(F)c(F)c(F)c2)N(C(=O)C(=O)Nc2cncc(C(N)=O)c2)C1 (single isomer, unassigned) [Compound 477] | 6.30 to 7.30 | 6.30 to 7.30 | > 7.30 | < 6.00 | – | > 7.00 | – | A (an IC50 ratio greater than or equal to 10 fold) | 5.00 to 6.00 | – | – | – | –
C[C@H]1CC[C@H](c2ccc3c(c2)C[C@H](C)O3)N(C(=O)C(=O)Nc2cncc(C(N)=O)c2)C1 (single isomer, unassigned) [Compound 376] | < 6.30 | < 6.30 | < 6.30 | < 6.00 | – | < 6.00 | – | C (an IC50 ratio of less than 3 fold) | < 5.00 | – | – | – | –
Cc1cc(NC(=O)C(=O)N2C[C@H](C)C(F)(F)C[C@H]2c2ccc(F)cc2)cnc1N (single isomer, unassigned) [Compound 777] | < 6.30 | < 6.30 | < 6.30 | < 6.00 | – | < 6.00 | – | B (an IC50 ratio greater than or equal to 3 fold but lower than 10 fold) | – | < 5.00 | – | – | –
C[C@@H]1CC[C@@H](c2ccc(Cl)c(N)c2)N(C(=O)C(=O)Nc2cncc(C(N)=O)c2)C1 (racemic) [Compound 280, rac-5-{2-[(2R,5S)-2-(3-Amino-4-chlorophenyl)-5-methylpiperidin-1-yl]-2-oxoacetamido}pyridine-3-carboxamide] | 6.30 to 7.30 | 6.30 to 7.30 | > 7.30 | < 6.00 | – | 6.00 to 7.00 | – | A (an IC50 ratio greater than or equal to 10 fold) | 5.00 to 6.00 | – | – | – | –
Cc1ccc([C@@H]2CC(F)(F)[C@@H](C)CN2C(=O)C(=O)Nc2cnc(N)c(C)c2)cn1 (single isomer, unassigned) [Compound 944] | < 6.30 | < 6.30 | < 6.30 | < 6.00 | < 6.00 | – | – | C (an IC50 ratio of less than 3 fold) | < 5.00 | – | – | – | –
CCc1cc(NC(=O)C(=O)N2C[C@@H](C)CC[C@@H]2c2ccc(N3CCN(C(C)C)CC3)cc2)cnc1N (single isomer, unassigned) [Compound 1208] | 6.30 to 7.30 | > 7.30 | > 7.30 | 6.00 to 7.00 | – | > 7.00 | – | – | > 6.00 | – | – | – | A (an IC50 ratio greater than or equal to 10 fold)

Now from value to molecule, other results behind:

pIC50 (PRMT5 [1]) | pIC50 (PRMT5 [2]; read-out: No Cofactor/rel IC50) | pIC50 (PRMT5 [3]) | pIC50 [4] | pIC50 [5, 7] | pIC50 [5, 10] | pIC50 (PRMT5 [2]; [12]) | Compound | MTAP intact/deleted ratio [5, 8] | pIC50 [6, 9] | pIC50 [6, 11] | pIC50 [6, 13] | pIC50 [6, 14] | MTAP intact/deleted ratio [5, 15]
6.30 to 7.30 | 6.30 to 7.30 | 6.30 to 7.30 | < 6.00 | > 7.00 | – | – | CNc1ccc([C@@H]2CC[C@@H](C)CN2C(=O)C(=O)Nc2cncc(C(N)=O)c2)nc1 (racemic) [Compound 907, 5-[[2-[(2R,5S)-5-methyl-2-[5-(methylamino)-2-pyridyl]-1-piperidyl]-2-oxo-acetyl]amino]pyridine-3-carboxamide] | A (an IC50 ratio greater than or equal to 10 fold) | 5.00 to 6.00 | – | – | – | –
> 7.30 | 6.30 to 7.30 | > 7.30 | < 6.00 | > 7.00 | – | – | C[C@H]1CC[C@H](c2ccccn2)N(C(=O)C(=O)Nc2cncc(C(N)=O)c2)C1 (single isomer, unassigned) [Compound 590] | A (an IC50 ratio greater than or equal to 10 fold) | – | – | – | 5.00 to 6.00 | –
> 7.30 | – | > 7.30 | > 7.00 | > 7.00 | – | > 7.30 | CCc1cc(NC(=O)C(=O)N2C[C@@H](C)CC[C@@H]2c2ccc3sc([C@H]4C[C@@H]5CN(C)C[C@@H]5C4)nc3c2)cnc1N [Compound 1338, N-(6-amino-5-ethylpyridin-3-yl)-2-((2R,5S)-5-methyl-2-(2-((3aR,5r,6aS)-2-methyloctahydrocyclopenta[c]pyrrol-5-yl)benzo[d]thiazol-5-yl)piperidin-1-yl)-2-oxoacetamide] | A (an IC50 ratio greater than or equal to 10 fold) | – | – | > 6.00 | – | –
> 7.30 | – | > 7.30 | 6.00 to 7.00 | > 7.00 | – | > 7.30 | COc1ncc(NC(=O)C(=O)N2C[C@@H](C)CC[C@@H]2c2ccc3sc(C4CN(C)C4)nc3c2)cc1C(N)=O [Compound 1257] | A (an IC50 ratio greater than or equal to 10 fold) | – | – | > 6.00 | – | –
> 7.30 | – | > 7.30 | 6.00 to 7.00 | > 7.00 | – | > 7.30 | CCc1cc(NC(=O)C(=O)N2C[C@@H](C)CC[C@@H]2c2cc(Cl)cc(OCCN(C)C)c2)cnc1N [Compound 1247, N-(6-amino-5-ethylpyridin-3-yl)-2-((2R,5S)-2-(3-chloro-5-(2-(dimethylamino)ethoxy)phenyl)-5-methylpiperidin-1-yl)-2-oxoacetamide] | A (an IC50 ratio greater than or equal to 10 fold) | – | – | > 6.00 | – | –
> 7.30 | > 7.30 | > 7.30 | 6.00 to 7.00 | – | > 7.00 | – | COc1ncc(NC(=O)C(=O)N2C[C@@H](C)CC[C@@H]2c2ccc3sc(C4(CN(C)C)CC4)nc3c2)cc1C(N)=O (single isomer, unassigned) [Compound 1109] | – | > 6.00 | – | – | – | A (an IC50 ratio greater than or equal to 10 fold)

From patent US11999727B2 (Tango Therapeutics, Inc., priority 2020, dated 2024)
